Results on 21 molecules are retold here after patent US20210292340A1, “CELL NECROSIS INHIBITOR, PREPARATION METHOD THEREFOR AND USE THEREOF” (SHANGHAI INSTITUTE OF ORGANIC CHEMISTRY, CHINESE ACADEMY OF …, priority 2018, published 2021).

One may read the Ki as a measure of affinity in units of concentration, obtained from inhibition or displacement. A low value points to a stronger hold on the target.

The test system of the first experiment is Jurkat (FADD−/−) cells. The experiment can be described thus: Inhibition of TNF-induced programmed Jurkat (FADD−/−) cell necrosis (Cell Titer-Glo). As to conditions: Homo sapiens, Jurkat, 20 h, TNF 10 ng/mL, intracellular ATP level, read-out: Cellular IC50 (M) Jurkat (FADD−/−). In kind it is cell-based, human. Put shortly:
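FADD-knockout Jurkat cells (5×10^5/mL) preincubated with compound, then given TNF (final 10 ng/mL) for 20 h at 37 °C. ATP measured by Cell Titer-Glo luminescence, normalised to untreated DMSO wells as 100% viability; IC50 from duplicate wells.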
In general terms: Cellular ATP, detected with luciferase, serves as a proxy for viable cell number.
`Cc1nc2cc3c(cc2[nH]1)OC[C@@H](NC(=O)c1cncn1Cc1ccccc1)C(=O)N3C` (stereo in doubt) [RIP1-069]: the IC50 came to 4.52e-09 M.

On to `CN1C(=O)[C@@H](NC(=O)c2cc(Cc3ccccc3)on2)COc2cc3[nH]ncc3cc21` [RIP1-021], for which the IC50 was found to be 5.8e-10 M.

As for `CN1C(=O)[C@@H](NC(=O)c2cn(Cc3ccccc3)cn2)COc2cc3[nH]nc(Cl)c3cc21` [RIP1-031], the IC50 stood at 2.9e-10 M.

`CN1C(=O)[C@@H](NC(=O)c2cc(Cc3ccccc3)on2)COc2cc3[nH]nc(Cl)c3cc21` [RIP1-033]: the IC50 amounted to 6.8e-10 M.

For `CN1C(=O)[C@@H](NC(=O)c2cn(Cc3ccccc3)nn2)COc2cc3[nH]nc(Cl)c3cc21` [RIP1-035], the IC50 was found to be 1.94e-09 M.

For `Cc1nc2cc3c(cc2[nH]1)OC[C@H](NC(=O)c1cc(Cc2ccccc2)on1)C(=O)N3C` [RIP1-061], the IC50 was determined as 5.86e-09 M.

Turning to `Cc1nc2cc3c(cc2[nH]1)OC[C@H](NC(=O)c1ncn(Cc2ccccc2)n1)C(=O)N3C` [RIP1-068], the IC50 is 7.62e-09 M.

Take `CN1C(=O)[C@@H](NC(=O)c2nnc(Cc3ccccc3)[nH]2)COc2ccc3ncccc3c21` [RIP1-097]: the IC50 is 1.2e-09 M.

Consider `CN1C(=O)[C@@H](NC(=O)c2ncn(Cc3ccccc3)n2)COc2ccc3ncccc3c21` [RIP1-098], for which the IC50 is 7.25e-10 M.

Take `CN1C(=O)[C@@H](NC(=O)c2cn(Cc3ccccc3)cn2)COc2ccc3ncccc3c21` [RIP1-099]: the IC50 turned out to be 6.92e-09 M.

Take `CN1C(=O)[C@@H](NC(=O)c2cn(Cc3ccccc3)nn2)COc2ccc3ncccc3c21` [RIP1-100]: the IC50 was 3.27e-08 M.

In the case of `CN1C(=O)[C@@H](NC(=O)c2cc(Cc3ccccc3)on2)COc2ccc3ncccc3c21` [RIP1-101], the IC50 was 5.5e-09 M.

`CN1C(=O)[C@@H](NC(=O)c2ncn(Cc3ccccc3)n2)COc2ccc3cnccc3c21` [RIP1-108]: the IC50 came out at 1.64e-10 M.

Turning to `CN1C(=O)[C@@H](NC(=O)c2cn(Cc3ccccc3)cn2)COc2ccc3cnccc3c21` [RIP1-109], the IC50 was determined as 7.22e-10 M.

With `CN1C(=O)[C@@H](NC(=O)c2cn(Cc3ccccc3)nn2)COc2ccc3cnccc3c21` [RIP1-110], the IC50 came out at 4.44e-09 M.

As for `CN1C(=O)[C@@H](NC(=O)c2cc(Cc3ccccc3)on2)COc2ccc3cnccc3c21` [RIP1-111], the IC50 was determined as 1.16e-09 M.

Take `CN1C(=O)[C@@H](NC(=O)c2ncn(Cc3ccccc3)n2)COc2cc3occc3cc21` [RIP1-119]: the IC50 is 5.81e-10 M.

In the case of `CN1C(=O)[C@@H](NC(=O)c2cn(Cc3ccccc3)cn2)COc2cc3occc3cc21` [RIP1-120], the IC50 is 2.56e-09 M.

Consider `CN1C(=O)[C@@H](NC(=O)c2nnn(Cc3ccccc3)n2)COc2cc3occc3cc21` [RIP1-122], for which the IC50 came out at 2.26e-10 M.

As to `CN1C(=O)[C@@H](NC(=O)c2noc(Cc3ccccc3)n2)COc2cc3occc3cc21` [RIP1-123], the IC50 was 1.33e-09 M.

In the case of `CN1C(=O)[C@@H](NC(=O)c2nnc(Cc3ccccc3)o2)COc2cc3occc3cc21` [RIP1-125], the IC50 was 8.43e-10 M.

The same experiment, now with this note: TNF 10 ng/mL, 20 h, intracellular ATP level; read-out: Cellular IC50 (M) Jurkat (FADD−/−).
As for `CN1C(=O)[C@@H](NC(=O)c2nnc(Cc3ccccc3)[nH]2)COc2ccc3ncccc3c21` [RIP1-097], the IC50 came to 2.28e-09 M.

The next experiment deals with T1, human RIP1 (Homo sapiens, UniProt Q13546).
T1 construct: made in house; host or cells: Sf-9 insect cells
T1 sequence (Q13546 1-671): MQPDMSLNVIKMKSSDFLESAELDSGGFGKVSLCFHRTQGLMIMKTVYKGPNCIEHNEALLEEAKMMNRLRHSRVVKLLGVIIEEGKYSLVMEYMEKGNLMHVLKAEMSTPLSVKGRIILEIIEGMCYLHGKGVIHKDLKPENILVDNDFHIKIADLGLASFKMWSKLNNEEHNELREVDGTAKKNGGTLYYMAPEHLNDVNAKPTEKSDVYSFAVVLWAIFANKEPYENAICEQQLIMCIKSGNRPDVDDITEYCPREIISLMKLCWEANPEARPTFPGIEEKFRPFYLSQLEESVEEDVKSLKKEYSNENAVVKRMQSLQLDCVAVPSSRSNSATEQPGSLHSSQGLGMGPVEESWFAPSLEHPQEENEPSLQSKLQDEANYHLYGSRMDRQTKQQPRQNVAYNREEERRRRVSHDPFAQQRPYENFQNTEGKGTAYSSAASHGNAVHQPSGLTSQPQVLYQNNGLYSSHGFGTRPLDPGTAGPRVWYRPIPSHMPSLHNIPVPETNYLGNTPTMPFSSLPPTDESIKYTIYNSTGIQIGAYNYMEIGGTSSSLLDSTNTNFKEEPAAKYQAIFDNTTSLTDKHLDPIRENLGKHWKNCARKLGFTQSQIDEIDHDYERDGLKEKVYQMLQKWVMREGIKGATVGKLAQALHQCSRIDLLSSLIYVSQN
The experiment in a line: Inhibition of ADP-Glo RIP1 kinase activity. The experiment is classed as biochemical.
Settings: not given
The method, then:
The human RIP1 gene was transduced into Sf-9 insect cells, and the RIP1 protein was purified by Ni+ affinity chromatography and then by S-200 molecular sieve to remove the protein multimers. The obtained RIP1 protein was stored at −70° C., and the activity of the RIP1 protein in catalyzing autophosphorylation was detected by the ADP-Glo™ Kinase Activity Assay Kit (Promega) and the inhibitory activity of the drug against the RIP1 kinase was determined.
100 nL of the compound was transferred to a 384-well assay plate. Two replicate wells were set for each concentration of each drug.
The RIP1 enzyme solution and ATP solution were formulated in an assay buffer (containing 50 mM HEPES pH 7.5, 30 mM MgCl2, 50 mM NaCl, 1 mM DTT, 0.02% CHAPS, and 0.5 mg/ml BSA). Then, 5 μL of the RIP1 enzyme solution (final concentration 50 nM) was added to the assay plate and incubated at room temperature for 1 h. 5 μL of the ATP solution (final concentration 10 μM) was added to the assay plate, and incubate at room temperature for 4 h. Then 5 μL of ADP-Glo reagent was added to the assay plate, and incubated at room temperature for 60 min. 5 μL of a kinase assay solution was added to the assay plate, and incubated at room temperature for 30 min. After readout on Envision, the inhibition rate in each well was calculated from the full-activity well and the background well, and the Ki of the compound was calculated by GraphPad Prism 7 software (using the Morrision equation to fit the curve and calculate the Ki).
(ADP-Glo turns the ADP formed in a reaction into a luminescent signal.)
With `Cc1nc2cc3c(cc2[nH]1)OC[C@@H](NC(=O)c1cncn1Cc1ccccc1)C(=O)N3C` (stereo in doubt) [RIP1-069], the affinity corresponds to a Ki of 31.3 nM. That is a double-digit nanomolar value.

Turning to `CN1C(=O)[C@@H](NC(=O)c2cc(Cc3ccccc3)on2)COc2cc3[nH]ncc3cc21` [RIP1-021], the inhibitory constant (Ki) amounted to 10.3 nM. Compared with the last molecule, the Ki is about 3-fold lower.

With `CN1C(=O)[C@@H](NC(=O)c2cn(Cc3ccccc3)cn2)COc2cc3[nH]nc(Cl)c3cc21` [RIP1-031], the affinity corresponds to a Ki of 0.66 nM.

With `CN1C(=O)[C@@H](NC(=O)c2cc(Cc3ccccc3)on2)COc2cc3[nH]nc(Cl)c3cc21` [RIP1-033], affinity was put at a Ki of 10.8 nM.

`CN1C(=O)[C@@H](NC(=O)c2cn(Cc3ccccc3)nn2)COc2cc3[nH]nc(Cl)c3cc21` [RIP1-035] showed a Ki of 7.8 nM.

`Cc1nc2cc3c(cc2[nH]1)OC[C@H](NC(=O)c1cc(Cc2ccccc2)on1)C(=O)N3C` [RIP1-061] gave a Ki of 44 nM.

As to `Cc1nc2cc3c(cc2[nH]1)OC[C@H](NC(=O)c1ncn(Cc2ccccc2)n1)C(=O)N3C` [RIP1-068], the inhibition constant Ki was determined as 42.8 nM. This Ki and that of the molecule before are within 1.5-fold of each other.

For the molecule `CN1C(=O)[C@@H](NC(=O)c2nnc(Cc3ccccc3)[nH]2)COc2ccc3ncccc3c21` [RIP1-097], the Ki is 23.2 nM. Against the preceding molecule, the Ki is about 1.8-fold lower.

The molecule `CN1C(=O)[C@@H](NC(=O)c2ncn(Cc3ccccc3)n2)COc2ccc3ncccc3c21` [RIP1-098] yielded a Ki of 20.9 nM.

In turn, `CN1C(=O)[C@@H](NC(=O)c2cn(Cc3ccccc3)cn2)COc2ccc3ncccc3c21` [RIP1-099] gave an inhibitory constant (Ki) of 37.7 nM.

As for `CN1C(=O)[C@@H](NC(=O)c2cn(Cc3ccccc3)nn2)COc2ccc3ncccc3c21` [RIP1-100], the Ki was found to be 20.4 nM.

`CN1C(=O)[C@@H](NC(=O)c2cc(Cc3ccccc3)on2)COc2ccc3ncccc3c21` [RIP1-101] displayed a Ki of 17.2 nM.

In turn, `CN1C(=O)[C@@H](NC(=O)c2ncn(Cc3ccccc3)n2)COc2ccc3cnccc3c21` [RIP1-108] showed a Ki of 12.6 nM.

In turn, `CN1C(=O)[C@@H](NC(=O)c2cn(Cc3ccccc3)cn2)COc2ccc3cnccc3c21` [RIP1-109] showed a Ki of 6.85 nM.

As to `CN1C(=O)[C@@H](NC(=O)c2cn(Cc3ccccc3)nn2)COc2ccc3cnccc3c21` [RIP1-110], the Ki stood at 14.6 nM.

In turn, `CN1C(=O)[C@@H](NC(=O)c2cc(Cc3ccccc3)on2)COc2ccc3cnccc3c21` [RIP1-111] gave a Ki of 18.5 nM. The Ki values of the last two molecules are within 1.5-fold of each other.

In turn, `CN1C(=O)[C@@H](NC(=O)c2ncn(Cc3ccccc3)n2)COc2cc3occc3cc21` [RIP1-119] showed a Ki of 19.1 nM.

Molecule `CN1C(=O)[C@@H](NC(=O)c2cn(Cc3ccccc3)cn2)COc2cc3occc3cc21` [RIP1-120] displayed an inhibition constant (Ki) of 20.7 nM.

Take `CN1C(=O)[C@@H](NC(=O)c2nnn(Cc3ccccc3)n2)COc2cc3occc3cc21` [RIP1-122]: the Ki came to 15.6 nM.

Molecule `CN1C(=O)[C@@H](NC(=O)c2noc(Cc3ccccc3)n2)COc2cc3occc3cc21` [RIP1-123] yielded an inhibition constant (Ki) of 23.2 nM.

`CN1C(=O)[C@@H](NC(=O)c2nnc(Cc3ccccc3)o2)COc2cc3occc3cc21` [RIP1-125] came in with a Ki of 19.6 nM.
